Measurements: patent US8895585B2, “Nicotinamide derivative or salt thereof” (FUJIFILM Corporation, priority 2010, dated 2014)

How the values were obtained:
[1] = tested on: THP-1 cells; test: TNFα generation assay; assay type: cell-based, human; conditions: Homo sapiens, THP-1, THP-1 cells; Table 22; read-out: IC50 in TNFα generation assay
Procedure, shortened: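 THP-1 cells differentiated to macrophage-like cells with 10 ng/ml IFN-γ for 2 days, preincubated with compound 30 min at room temperature, then cultured 7 h on plates coated with human IgG (10 μg/ml). Secreted TNFα measured by ELISA or AlphaLISA.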

[2] = molecular target: T1, glutathione S-transferase (GST)-fused full-length human Syk protein (Homo sapiens, UniProt P43405); test: Syk enzyme assay; assay type: biochemical; conditions: Syk enzyme assay, Test Example 1; read-out: IC50 of Syk-inhibitory activity
T1 construct: (GST)-fused full-length human Syk protein; GST (glutathione S-transferase); purchased Carna Biosciences
Procedure, shortened: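 GST-tagged full-length human Syk (baculovirus) preincubated with compound 15 min at room temperature (pH 7.0, 10 mM MgCl2), then reacted 40 min with 0.4 μM biotinylated peptide substrate and 27 μM ATP (final). Phosphorylation read by HTRF (615/665 nm) after EDTA stop; IC50 reported.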

Row | IC50 [1] [nM] | IC50 [2] [nM] | SMILES
1 | 130 to 200 | < 10 | NC(=O)c1cc(F)c(NC2CCCCC2N)nc1Nc1cccc2nn(CC3CC3)cc12 (stereo not drawn) [Example 002-032]
2 | 130 to 200 | < 10 | NC(=O)c1cc(F)c(NC2CCCCC2N)nc1Nc1ccc2nn(Cc3ccccc3)cc2c1 (stereo not drawn) [Example 002-037]
3 | 65 to 130 | < 10 | CCc1cncc(Nc2nc(NC3CCCCC3N)c(F)cc2C(N)=O)c1 (stereo not drawn) [Example 002-038]
4 | 65 to 130 | < 10 | Cn1cc2cc(Nc3nc(NC4CCCCC4N)c(F)cc3C(N)=O)ccc2n1 (stereo not drawn) [Example 002-041]
5 | 130 to 200 | < 10 | COCCn1ncc2ccc(Nc3nc(NC4CCCCC4N)c(F)cc3C(N)=O)cc21 (stereo not drawn) [Example 002-048]
6 | 65 to 130 | < 10 | NC(=O)c1cc(F)c(NC2CCCCC2N)nc1Nc1ccnc(-c2ccco2)c1 (stereo not drawn) [Example 002-053]
7 | 65 to 130 | 10 to 50 | NC(=O)c1cc(F)c(NC2CCCCC2N)nc1Nc1ccnc(N2CCCC2=O)c1 (stereo not drawn) [Example 002-054]
8 | 130 to 200 | < 10 | CC(C)Oc1cc(Nc2nc(NC3CCCCC3N)c(F)cc2C(N)=O)ccn1 (stereo not drawn) [Example 002-055]
9 | 65 to 130 | < 10 | NC(=O)c1cc(F)c(NC2CCCCC2N)nc1Nc1ccnc(-c2ccoc2)c1 (stereo not drawn) [Example 002-057]
10 | 65 to 130 | < 10 | CNc1cc(Nc2nc(NC3CCCCC3N)c(F)cc2C(N)=O)ccn1 (stereo not drawn) [Example 002-058]
11 | 130 to 200 | 10 to 50 | CCNc1cc(Nc2nc(NC3CCCCC3N)c(F)cc2C(N)=O)ccn1 (stereo not drawn) [Example 002-059]
12 | 65 to 130 | < 10 | CCOc1cc(Nc2nc(NC3CCCCC3N)c(F)cc2C(N)=O)ccn1 (stereo not drawn) [Example 002-060]
13 | 130 to 200 | < 10 | COCCOc1cc(Nc2nc(NC3CCCCC3N)c(F)cc2C(N)=O)ccn1 (stereo not drawn) [Example 002-066]
14 | 130 to 200 | 10 to 50 | CNc1ccc(Nc2nc(NC3CCCCC3N)c(F)cc2C(N)=O)cn1 (stereo not drawn) [Example 002-073]
15 | 130 to 200 | < 10 | COCCOc1ccc2cc(Nc3nc(NC4CCCCC4N)c(F)cc3C(N)=O)ccc2n1 (stereo not drawn) [Example 002-097]
16 | 130 to 200 | < 10 | CCOCCOCCOc1ccc2cc(Nc3nc(NC4CCCCC4N)c(F)cc3C(N)=O)ccc2n1 (stereo not drawn) [Example 002-100]
17 | 130 to 200 | < 10 | COCCOCCOc1ccc2cc(Nc3nc(NC4CCCCC4N)c(F)cc3C(N)=O)ccc2n1 (stereo not drawn) [Example 002-110]
18 | 130 to 200 | < 10 | NC(=O)c1cc(F)c(NC2CCCCC2N)nc1Nc1ccc2nc(OCCN3CCCC3=O)ccc2c1 (stereo not drawn) [Example 002-113]
19 | < 65 | < 10 | NC(=O)c1cc(F)c(NC2CCCCC2N)nc1Nc1ccnc(-n2cncn2)c1 (stereo not drawn) [Example 002-114]
20 | 130 to 200 | 10 to 50 | Cn1c(=O)ccc2cc(Nc3nc(NC4CCCCC4N)c(F)cc3C(N)=O)cnc21 (stereo not drawn) [Example 002-115]
21 | 65 to 130 | < 10 | Cc1ncc(Nc2nc(NC3CCCCC3N)c(F)cc2C(N)=O)cc1-c1ccoc1 (stereo not drawn) [Example 002-117]

Row | IC50 [1] [nM] | IC50 [2] [nM] | SMILES
22 | 130 to 200 | 10 to 50 | Cc1ncc(Nc2nc(NC3CCCCC3N)c(F)cc2C(N)=O)cc1C1CC1 (stereo not drawn) [Example 002-118]
23 | 130 to 200 | < 10 | Cc1nc2ccc(Nc3nc(NC4CCCCC4N)c(F)cc3C(N)=O)cc2nc1C (stereo not drawn) [Example 002-123]
24 | 65 to 130 | < 10 | CCn1ncc2cc(Nc3nc(NC4CCCCC4N)c(F)cc3C(N)=O)ccc21 (stereo not drawn) [Example 002-125]
25 | 65 to 130 | < 10 | CCCn1ncc2cc(Nc3nc(NC4CCCCC4N)c(F)cc3C(N)=O)ccc21 (stereo not drawn) [Example 002-126]
26 | 65 to 130 | < 10 | NC(=O)c1cc(F)c(NC2CCCCC2N)nc1Nc1ccnc(-c2ccccc2F)c1 (stereo not drawn) [Example 002-131]
27 | 130 to 200 | < 10 | NC(=O)c1cc(F)c(NC2CCCCC2N)nc1Nc1cncc(-n2cncn2)c1 (stereo not drawn) [Example 002-137]
28 | 65 to 130 | < 10 | COc1cccc(-c2cc(Nc3nc(NC4CCCCC4N)c(F)cc3C(N)=O)ccn2)c1F (stereo not drawn) [Example 002-139]
29 | 130 to 200 | < 10 | COc1ccc(-c2cc(Nc3nc(NC4CCCCC4N)c(F)cc3C(N)=O)ccn2)c(F)c1 (stereo not drawn) [Example 002-140]
30 | 65 to 130 | < 10 | COc1ccc(F)c(-c2cc(Nc3nc(NC4CCCCC4N)c(F)cc3C(N)=O)ccn2)c1 (stereo not drawn) [Example 002-141]
31 | 130 to 200 | < 10 | NC(=O)c1cc(F)c(NC2CCCCC2N)nc1Nc1ccc(C2CC2)nc1 (stereo not drawn) [Example 002-142]
32 | 130 to 200 | < 10 | NC(=O)c1cc(F)c(NC2CCCCC2N)nc1Nc1ccnc(-c2cccc(F)c2F)c1 (stereo not drawn) [Example 002-144]
33 | 65 to 130 | 10 to 50 | COc1ncc(Nc2nc(NC3CCCCC3N)c(F)cc2C(N)=O)cc1-n1nccn1 (stereo not drawn) [Example 002-155]
34 | 130 to 200 | 10 to 50 | NC(=O)c1cc(F)c(NC2CCCCC2N)nc1Nc1ccc(-n2cccn2)nc1 (stereo not drawn) [Example 002-160]
35 | 130 to 200 | 10 to 50 | Cc1nccc(Nc2nc(NC3CCCCC3N)c(F)cc2C(N)=O)c1F (stereo not drawn) [Example 002-163]
36 | 65 to 130 | 10 to 50 | NC(=O)c1cc(F)c(NC2CCCCC2N)nc1Nc1ccnc(N2CCOCC2)c1F (stereo not drawn) [Example 002-165]
37 | 130 to 200 | 10 to 50 | NC(=O)c1cc(F)c(NC2CCCCC2N)nc1Nc1cnnc(-c2ccccc2)c1 (stereo not drawn) [Example 002-169]
38 | 65 to 130 | 10 to 50 | COc1ccc(-c2cncc(Nc3nc(NC4CCCCC4N)c(F)cc3C(N)=O)c2)cc1OC (stereo not drawn) [Example 002-170]
39 | 130 to 200 | 10 to 50 | NC(=O)c1cc(F)c(NC2CCCCC2N)nc1Nc1cncc(-c2ccc([N+](=O)[O-])cc2)c1 (stereo not drawn) [Example 002-172]
40 | 130 to 200 | 10 to 50 | N#Cc1ccc(-c2cncc(Nc3nc(NC4CCCCC4N)c(F)cc3C(N)=O)c2)cc1 (stereo not drawn) [Example 002-173]
41 | < 65 | < 10 | NC(=O)c1cc(F)c(NC2CCCCC2N)nc1Nc1cncc(-c2ccc3c(c2)OCO3)c1 (stereo not drawn) [Example 002-175]
42 | < 65 | < 10 | CCn1ncc2ccc(Nc3nc(NC4CCCCC4N)c(F)cc3C(N)=O)cc21 (stereo not drawn) [Example 002-185]

Row | IC50 [1] [nM] | IC50 [2] [nM] | SMILES
43 | 65 to 130 | < 10 | CCn1ncc2c(Nc3nc(NC4CCCCC4N)c(F)cc3C(N)=O)cccc21 (stereo not drawn) [Example 002-186]
44 | < 65 | < 10 | NC(=O)c1cc(F)c(NC2CCCCC2N)nc1Nc1ccc2c(cnn2CC(F)F)c1 (stereo not drawn) [Example 002-187]
45 | 65 to 130 | < 10 | NC(=O)c1cc(F)c(NC2CCCCC2N)nc1Nc1ccc2cnn(CC(F)F)c2c1 (stereo not drawn) [Example 002-188]
46 | 65 to 130 | < 10 | NC(=O)c1cc(F)c(NC2CCCCC2N)nc1Nc1cncc(-c2ccc3cccnc3c2)c1 (stereo not drawn) [Example 002-189]
47 | 130 to 200 | < 10 | NC(=O)c1cc(F)c(NC2CCCCC2N)nc1Nc1cncc(-c2ccc3cnccc3c2)c1 (stereo not drawn) [Example 002-190]
48 | 65 to 130 | < 10 | NC(=O)c1cc(F)c(NC2CCCCC2N)nc1Nc1cncc(-c2ccc3ccncc3c2)c1 (stereo not drawn) [Example 002-191]
49 | 130 to 200 | < 10 | NC(=O)c1cc(F)c(NC2CCCCC2N)nc1Nc1ccnc(-c2ccc3cnccc3c2)c1 (stereo not drawn) [Example 002-193]
50 | 65 to 130 | < 10 | Cn1nc(F)c2cc(Nc3nc(NC4CCCCC4N)c(F)cc3C(N)=O)ccc21 (stereo not drawn) [Example 002-196]
51 | 130 to 200 | < 10 | CCn1nc(F)c2cc(Nc3nc(NC4CCCCC4N)c(F)cc3C(N)=O)ccc21 (stereo not drawn) [Example 002-197]
52 | 65 to 130 | < 10 | Cn1nc(F)c2ccc(Nc3nc(NC4CCCCC4N)c(F)cc3C(N)=O)cc21 (stereo not drawn) [Example 002-198]
53 | 130 to 200 | < 10 | CCn1nc(F)c2ccc(Nc3nc(NC4CCCCC4N)c(F)cc3C(N)=O)cc21 (stereo not drawn) [Example 002-199]
54 | < 65 | < 10 | NC(=O)c1cc(F)c(NC2CCCCC2N)nc1Nc1ccc2c(cnn2CCF)c1 (stereo not drawn) [Example 002-200]
55 | 65 to 130 | < 10 | NC(=O)c1cc(F)c(NC2CCCCC2N)nc1Nc1ccc2cnn(CCF)c2c1 (stereo not drawn) [Example 002-201]
56 | 65 to 130 | < 10 | NC(=O)c1cc(F)c(NC2CCCCC2N)nc1Nc1ccc2c(c1)c(F)nn2CCF (stereo not drawn) [Example 002-204]
57 | 65 to 130 | < 10 | NC(=O)c1cc(F)c(NC2CCCCC2N)nc1Nc1ccc2c(F)nn(CCF)c2c1 (stereo not drawn) [Example 002-205]
58 | < 65 | < 10 | Cc1nn(C)c2ccc(Nc3nc(NC4CCCCC4N)c(F)cc3C(N)=O)cc12 (stereo not drawn) [Example 002-206]
59 | 65 to 130 | < 10 | CCn1nc(C)c2cc(Nc3nc(NC4CCCCC4N)c(F)cc3C(N)=O)ccc21 (stereo not drawn) [Example 002-207]
60 | 65 to 130 | < 10 | COCCn1nc(C)c2cc(Nc3nc(NC4CCCCC4N)c(F)cc3C(N)=O)ccc21 (stereo not drawn) [Example 002-208]
61 | 65 to 130 | < 10 | Cc1nn(CCF)c2ccc(Nc3nc(NC4CCCCC4N)c(F)cc3C(N)=O)cc12 (stereo not drawn) [Example 002-209]
62 | 65 to 130 | < 10 | Cc1nn(CC(F)F)c2ccc(Nc3nc(NC4CCCCC4N)c(F)cc3C(N)=O)cc12 (stereo not drawn) [Example 002-210]
63 | < 65 | 10 to 50 | NC(=O)c1cc(F)c(N[C@@H]2CCCC[C@@H]2N)nc1Nc1cnc2cccnc2c1 [Example 004-002]
